Reference: US20120165553A1, “IMMUNOSTIMULANT” (RIKEN, priority 2010, published 2012)

How the values were obtained:
[1] = system: mouse spleen cells (T cells and B cells); assay: spleen cell proliferation caused by antigen stimulation (BrdU incorporation ELISA); assay type: cell-based; conditions: BL 10 nM; antigen 10 µg/mL of ovalbumin; cultured for 3 days; spleen cells of ovalbumin/aluminum hydroxide immunised BALB/c mouse; FIG. 1
Method: The effect of BL on the spleen cell proliferation caused by an antigen stimulation was examined.
A mixed solution (0.2 mL) of […] of ovalbumin (Sigma-Aldrich Corporation) and 4 mg of aluminum hydroxide (Thermo Scientific Pierce Protein Research Products) was intraperitoneally administered to a BALB/c mouse (female, 8 to 12 weeks old) and the spleen was collected 2 weeks later. Cells were isolated from the spleen and cultured in RPMI-1640 medium containing 10% fetal bovine serum (Cansera International Inc.), 5×10^−5M β-mercaptoethanol (Wako Pure Chemical Industries, Ltd.), 20 U/mL penicillin (Meiji Seika Kaisha, Limited) and 100 μg/mL streptomycin (Meiji Seika Kaisha, Limited) at 37° C. under the presence of 5% CO2. Cells to which BL (Brassino Co., Ltd.) was added in a concentration of 10 nM and cells to which BL was not added were respectively stimulated by an antigen ([…] of ovalbumin), cultured for 3 days and measured for the incorporated BrdU in the detection of proliferating spleen cells using a cell proliferation ELISA BrdU colorimetric kit (Roche Applied Science).

macrophages [2] = assay: cytokine mRNA expression in macrophages stimulated with R848 (real time PCR); assay type: cell-based, mouse; conditions: 10 nM BL for 15 minutes, then R848 stimulation, RNA 1 hour later, relative to HPRT mRNA
Method: 3 mL of 3% thioglycolate medium (Difco Laboratories) was intraperitoneally administered to a BALB/c mouse (female, 8 to 12 weeks age), peritoneal cells were collected 3 days later and cultured in RPMI-1640 medium containing 10% fetal bovine serum (Cansera International Inc.), 5×10^−5M β-mercaptoethanol (Wako Pure Chemical Industries, Ltd.), 20 U/mL penicillin (Meiji Seika Kaisha, Limited) and 100 μg/mL streptomycin (Meiji Seika Kaisha, Limited) at 37° C. under the presence of 5% CO2. After culturing 1×10^6/mL of the peritoneal cells for 3 hours in a 6-well plate (2 mL/well), non-adherent cells were removed and adherent cells were tested as the macrophages. The macrophages were cultured for 15 minutes in the presence or absence of 10 nM BL, subsequently stimulated with R848 (InvivoGen) or LPS (Sigma-Aldrich Corporation) 100 ng/mL, and the RNA was collected 1 hour later using Rneasy Mini Kit (QIAGEN K. K.). Using a Primescript RT reagent kit (TAKARA BIO INC.), cDNA was synthesized from […] of the isolated RNA in accordance with the attached protocol and the real time PCR was carried out using Thermal Cycler Dice Real Time System II (TAKARA BIO INC.) to examine the changes of cytokine (IFN-α, IFN-β, IL-12 subunit p35, IL-12 subunit p40, TNF-α) mRNA expression. […]

macrophages [3] = assay: cytokine mRNA expression in macrophages stimulated with LPS (real time PCR); assay type: cell-based, mouse; conditions: 10 nM BL for 15 minutes, then LPS stimulation, RNA 1 hour later, relative to HPRT mRNA
Method: 3 mL of 3% thioglycolate medium (Difco Laboratories) was intraperitoneally administered to a BALB/c mouse (female, 8 to 12 weeks age), peritoneal cells were collected 3 days later and cultured in RPMI-1640 medium containing 10% fetal bovine serum (Cansera International Inc.), 5×10^−5M β-mercaptoethanol (Wako Pure Chemical Industries, Ltd.), 20 U/mL penicillin (Meiji Seika Kaisha, Limited) and 100 μg/mL streptomycin (Meiji Seika Kaisha, Limited) at 37° C. under the presence of 5% CO2. After culturing 1×10^6/mL of the peritoneal cells for 3 hours in a 6-well plate (2 mL/well), non-adherent cells were removed and adherent cells were tested as the macrophages. The macrophages were cultured for 15 minutes in the presence or absence of 10 nM BL, subsequently stimulated with R848 (InvivoGen) or LPS (Sigma-Aldrich Corporation) 100 ng/mL, and the RNA was collected 1 hour later using Rneasy Mini Kit (QIAGEN K. K.). Using a Primescript RT reagent kit (TAKARA BIO INC.), cDNA was synthesized from […] of the isolated RNA in accordance with the attached protocol and the real time PCR was carried out using Thermal Cycler Dice Real Time System II (TAKARA BIO INC.) to examine the changes of cytokine (IFN-α, IFN-β, IL-12 subunit p35, IL-12 subunit p40, TNF-α) mRNA expression.
The mRNA amounts are shown for IFN-α in FIG. 3, IFN-β in FIG. 4, IL-12 subunit p35 in FIG. 5, IL-12 subunit p40 in FIG. 6 and TNF-α in FIG. 7. The mRNA amount in each Figure is indicated as the relative amount to the mRNA amount of HPRT, which is the housekeeping gene.

BALB/c mouse = assay: antigen (ovalbumin) specific antibody (IgG) production in mouse, serum ELISA; assay type: in vivo; conditions: BL 0.2, 1 and 5 mg/Kg of body weight intraperitoneally every other day; serum 2 weeks later; absorbance at 450 nm; FIG. 2
Method: A mixed solution (0.2 mL) of […] of ovalbumin (Sigma-Aldrich Corporation) and 4 mg of aluminum hydroxide (Thermo Scientific Pierce Protein Research Products) was intraperitoneally administered to a BALB/c mouse (female, 8 to 12 weeks old) and BL dissolved in 0.2 mL PBS (0, 0.2, 1 and 5 mg/Kg of body weight) was intraperitoneally administered every other day. The serum was isolated 2 weeks later and measured for the production of immunoglobulin (IgG) specific to the antigen (ovalbumin) using ELISA. ELISA was carried out using a biotinylated anti-mouse IgG antibody (Southern Biotechnology Associates Inc.) as the secondary antibody, streptavidin-HRP (Prozyme, Inc.) and a TMB Microwell Peroxidase Substrate (Kirkegaard & Perry Laboratories, Inc.) as the colorimetric substrate, and the absorbance at 450 nm was measured.

CC(C)[C@H](C)[C@@H](O)[C@H](O)[C@@H](C)[C@H]1CC[C@H]2[C@@H]3COC(=O)[C@H]4C[C@H](O)[C@H](O)C[C@]4(C)[C@H]3CC[C@]12C [BL, Brassinolide]
spleen cell proliferation induced by the antigen stimulation (incorporated BrdU) [1]: significantly promoted
IFN-α mRNA expression induction (macrophages [2]; FIG. 3): enhancing
IFN-β mRNA expression induction (macrophages [2]; FIG. 4): enhancing
IL-12 p35 mRNA expression induction (macrophages [3]; FIG. 5): enhancing
IL-12 p40 mRNA expression induction (macrophages [3]; FIG. 6): enhancing
TNF-α mRNA expression induction (macrophages [3]; FIG. 7): enhancing
antigen specific antibody (IgG) production induced by ovalbumin and aluminum hydroxide (BALB/c mouse): significantly promoted
